# Experiments:
# Format in all cases: cell-based
# [1] = tested on: HTT mRNA; test: RT-qPCR splicing assay for HTT mRNA isoforms (canonical junction CJ and alternative junction AJ); conditions: A673 or K562 cell line, 24 hours compound treatment; for IC50: decrease in CJ mRNA; for AC50: increase in AJ mRNA
# Protocol: (§1) Compounds described herein were used to modulate RNA transcript abundance in cells. The expression of a target mRNA was measured by detecting the formation of an exon-exon junction in the canonical transcript (CJ). A compound mediated exon-inclusion event was detected by observing an increase in formation of a new junction with an alternative exon (AJ). Real-time qPCR assays were used to detect these splicing switches and interrogate the potency of various compounds towards different target genes. A high-throughput real time quantitative PCR (RT-qPCR) assay was developed to measure these two isoforms of the mRNA (CJ and AJ) for an exemplary gene, HTT, together with a control housekeeping gene, GAPDH or GUSB or PPIA, used for normalization. Briefly, the A673 or K562 cell line was treated with various compounds described herein (e.g., compounds of Formula (I)). After treatment, the levels of the HTT mRNA targets were determined from each sample of cell lysate by cDNA synthesis followed by qPCR.
# Cells-to-CT 1-step kit: ThermoFisher A25602, Cells-to-CT lysis reagent: ThermoFisher 4391851C, TaqMan™ Fast Virus 1-Step Master Mix: ThermoFisher 4444436 GAPDH: VIC-PL, ThermoFisher 4326317E (Assay: Hs99999905_m1)—used for K562/suspension cell lines GUSB: VIC-PL, ThermoFisher 4326320E (Assay: Hs99999908_m1)—used for K562/suspension cell lines PPIA: VIC-PL, ThermoFisher 4326316E (Assay: Hs99999904_m1)—used for A673/adherent cell lines
# (§2) The A673 cell line was cultured in DMEM with 10% FBS. Cells were diluted with full growth media and plated in a 96-well plate (15,000 cells in 100 ul media per well). The plate was incubated at 37° C. with 5% CO2 for 24 hours to allow cells to adhere. An 11-point 3-fold serial dilution of the compounds was made in DMSO then diluted in media in an intermediate plate. Compounds were transferred from the intermediate plate to the cell plate with the top dose at a final concentration of 10 uM in the well. Final DMSO concentration was kept at or below 0.25%. The cell plate was returned to the incubator at 37° C. with 5% CO2 for an additional 24 hours.
# (§3) The K562 cell line was cultured in IMDM with 10% FBS. For K562, cells were diluted with full growth media and plated in either a 96-well plate (50,000 cells in 50 uL media per well) or a 384-well plate (8,000-40,000 cells in 45 uL media per well). An 11-point 3-fold serial dilution of the compounds were made in DMSO then diluted in media in an intermediate plate. Compound was transferred from the intermediate plate to the cell plate with the top dose at a final concentration of 10 uM in the well. Final DMSO concentration was kept at or below 0.25%. Final volume was 100 uL for 96-well plate and 50 uL for 384-well plate. The cell plate was then placed in an incubator at 37° C. with 5% CO2 for 24 hours.
# (§4) The cells were then gently washed with 50 uL-100 uL cold PBS before proceeding to addition of lysis buffer. 30 uL-50 uL of room temperature lysis buffer with DNAse I (and optionally RNAsin) was added to each well. Cells were shaken/mixed thoroughly at room temperature for 5-10 minutes for lysis to take place and then 3 uL-5 uL of room temperature stop solution was added and wells were shaken/mixed again. After 2-5 minutes, the cell lysate plate was transferred to ice for RT-qPCR reaction setup. The lysates could also be frozen at −80° C. for later use.
# In some cases, a direct lysis buffer was used. An appropriate volume of 3× lysis buffer (10 mM Tris, 150 mM NaCl, 1.5%-2.5% Igepal and 0.1-1 U/uL RNAsin, pH 7.4) was directly added to either K562 or A673 cells in media and mixed by pipetting 3 times. The plates were then incubated at room temperature with shaking/rocking for 20-50 minutes to allow for lysis to take place. After this time, the cell lysate plate was transferred to ice to set up for the RT-qPCR reactions. The lysates could also be frozen at −80° C. for later use. […]
# [2] = tested on: HTT CJ mRNA; test: Gene panel canonical junction qPCR assay, HTT; conditions: decrease in CJ mRNA levels, RT-qPCR
# Protocol: as §1, §2, §3, §4
# (§5) In some cases, a direct lysis buffer was used. An appropriate volume of 3× lysis buffer (10 mM Tris, 150 mM NaCl, 1.5%-2.5% Igepal and 0.1-1 U/uL RNAsin, pH 7.4) was directly added to either K562 or A673 cells in media and mixed by pipetting 3 times. The plates were then incubated at room temperature with shaking/rocking for 20-50 minutes to allow for lysis to take place. After this time, the cell lysate plate was transferred to ice to set up for the RT-qPCR reactions. The lysates could also be frozen at −80° C. for later use.
# (§6) To set up 10 uL RT-qPCR reactions, cell lysates were transferred to 384-well qPCR plates containing the master mix according to the table below. The plates were sealed, gently vortexed, and spun down before the run. The volumes were adjusted accordingly in some instances where the reaction was carried in 20 uL. The table below summarizes the components of the RT-qPCR reactions:
# (§7) The RT-qPCR reaction was performed using a QuantStudio (ThermoFisher) under the following fast cycling conditions. […]
# [3] = tested on: SMN2 CJ mRNA; test: Gene panel canonical junction qPCR assay, SMN2; conditions: decrease in CJ mRNA levels, RT-qPCR
# Protocol: as §1, §2, §3, §4, §5, §6, §7
# [4] = tested on: Target C CJ mRNA; test: Gene panel canonical junction qPCR assay, Target C; conditions: decrease in CJ mRNA levels, RT-qPCR
# Protocol: as §1, §2, §3, §4, §5, §6, §7
SMILES,IC50 [1] [nM],AC50 [1] [nM],IC50 [2] [nM],IC50 [3] [nM],IC50 [4] [nM]
"CN(c1ccc2c(n1)OCc1cc(-c3cn[nH]c3)ccc1-2)C1CC(C)(C)NC(C)(C)C1 [Compound 147, N,2,2,6,6-pentamethyl-N-[8-(1H-pyrazol-4-yl)-6H-isochromeno[3,4-b]pyridin-3-yl]piperidin-4-amine]",100 to 1000,100 to 1000,100 to 1000,> 10000,100 to 1000
CCN(c1ccc2c(n1)OCc1cc(-n3cccn3)ccc1-2)C1CCNCC1 [Compound 177],> 10000,> 10000,> 10000,> 10000,> 10000
CCN(c1ccc2c(n1)OCc1cc(-n3cccn3)ccc1-2)C1CC(C)(C)NC(C)(C)C1 [Compound 189],> 10000,1000 to 10000,> 10000,1000 to 10000,> 10000
CN(c1ccc2c(n1)OCc1cc(-n3cccn3)ccc1-2)[C@@H]1C[C@H]2CCC[C@@H](C1)N2 [Compound 178],< 100,< 100,< 100,< 100,100 to 1000
[2H]C([2H])([2H])N(c1ccc2c(n1)OCc1cc(-n3cccn3)ccc1-2)[C@@H]1C[C@H]2CC[C@@H](C1)N2 [Compound 201],100 to 1000,100 to 1000,100 to 1000,< 100,100 to 1000
c1cnn(-c2ccc3c(c2)COc2nc(N4CC5(CCCNC5)C4)ccc2-3)c1 [Compound 168],> 10000,> 10000,> 10000,> 10000,> 10000
"CN(c1cnc2c(n1)OCc1cc(-c3cn[nH]c3)ccc1-2)[C@@H]1C[C@H]2CC[C@@H](C1)N2 [Compound 144, (exo)-N-methyl-N-[8-(1H-pyrazol-4-yl)-6H-isochromeno[3,4-b]pyrazin-3-yl]-8-azabicyclo[3.2.1]octan-3-amine]",100 to 1000,100 to 1000,100 to 1000,> 10000,100 to 1000
"CN(c1ccc2c(n1)CCOc1cc(-n3cccn3)ccc1-2)C1CC(C)(C)NC(C)(C)C1 [Compound 129, N-methyl-13-(pyrazol-1-yl)-N-(2,2,6,6-tetramethylpiperidin-4-yl)-10-oxa-6-azatricyclo[9.4.0.0^[2,7]]pentadeca-1(11),2(7),3,5,12,14-hexaen-5-amine]",> 10000,> 10000,> 10000,> 10000,> 10000
"CN(c1cnc2c(n1)OCc1cc(-c3cn[nH]c3)ccc1-2)C1CC(C)(C)NC(C)(C)C1 [Compound 142, N,2,2,6,6-pentamethyl-N-[8-(1H-pyrazol-4-yl)-6H-isochromeno[3,4-b]pyrazin-3-yl]piperidin-4-amine]",100 to 1000,100 to 1000,100 to 1000,100 to 1000,1000 to 10000
CC1(C)CC(Oc2ccc3c(n2)OCc2cc(-n4cccn4)ccc2-3)CC(C)(C)N1 [Compound 171],1000 to 10000,1000 to 10000,1000 to 10000,100 to 1000,1000 to 10000
CN(c1ccc2c(n1)OCc1cc(-n3cccn3)ccc1-2)[C@H]1[C@@H]2CNC[C@@H]21 [Compound 194],1000 to 10000,1000 to 10000,> 10000,> 10000,> 10000
CN(c1ccc2c(n1)OCc1cc(-c3cc(=O)n(C)cn3)ccc1-2)[C@@H]1C[C@H]2CC[C@@H](C1)N2 [Compound 162],< 100,< 100,< 100,< 100,< 100
c1cnn(-c2ccc3c(c2)COc2nc(N4CCC5(CCNCC5)C4)ccc2-3)c1 [Compound 182],> 10000,> 10000,> 10000,> 10000,> 10000
CN(c1ccc2c(n1)OCc1cc(-n3cc(N)cn3)ccc1-2)[C@@H]1C[C@H]2CC[C@@H](C1)N2 [Compound 172],100 to 1000,100 to 1000,100 to 1000,< 100,100 to 1000
"CN(c1ccc2c(n1)COc1cc(-n3cccn3)ccc1-2)C1CC(C)(C)NC(C)(C)C1 [Compound 125, N,2,2,6,6-pentamethyl-N-[8-(pyrazol-1-yl)-5H-chromeno[3,4-b]pyridin-3-yl]piperidin-4-amine]",> 10000,> 10000,> 10000,> 10000,> 10000
CN(c1ccc2c(n1)OCc1cc(-c3ccc(=O)n(C)c3)ccc1-2)[C@@H]1C[C@H]2CC[C@@H](C1)N2 [Compound 158],100 to 1000,100 to 1000,100 to 1000,100 to 1000,100 to 1000
c1cnn(-c2ccc3c(c2)COc2nc(NC4CNC4)ccc2-3)c1 [Compound 166],> 10000,> 10000,> 10000,1000 to 10000,> 10000
COc1cc(-c2ccc3c(c2)COc2nc(N(C)[C@@H]4C[C@H]5CC[C@@H](C4)N5)ccc2-3)cnn1 [Compound 159],< 100,< 100,< 100,< 100,< 100
CN(c1ccc2c(c1)CCOc1cc(-n3cccn3)ccc1-2)[C@@H]1C[C@H]2CC[C@@H](C1)N2 [Compound 113],> 10000,> 10000,> 10000,> 10000,> 10000
"CN(c1ccc2c(n1)OCc1cc(-n3cccn3)ccc1-2)C1CC(C)(C)NC(C)(C)C1 [Compound 148, N,2,2,6,6-pentamethyl-N-[8-(pyrazol-1-yl)-6H-isochromeno[3,4-b]pyridin-3-yl]piperidin-4-amine]",1000 to 10000,1000 to 10000,1000 to 10000,100 to 1000,1000 to 10000
CN(c1ccc2c(n1)OCc1cc(-n3ccnc3)ccc1-2)[C@@H]1C[C@H]2CC[C@@H](C1)N2 [Compound 163],< 100,< 100,< 100,< 100,100 to 1000
Cc1ncc(-c2ccc3c(c2)COc2nc(N(C)[C@@H]4C[C@H]5CC[C@@H](C4)N5)ccc2-3)o1 [Compound 155],< 100,< 100,< 100,< 100,100 to 1000
c1cnn(-c2ccc3c(c2)COc2nc(N[C@@H]4C[C@H]5CCC[C@@H](C4)N5)ccc2-3)c1 [Compound 190],< 100,100 to 1000,< 100,< 100,100 to 1000

# Source: patent publication US20230148184A1, “COMPOUNDS AND METHODS FOR MODULATING SPLICING” (REMIX THERAPEUTICS INC., priority 2020, published 2023)
